{
  "source": "paper PMC11310079",
  "about": "“Commensal production of a broad-spectrum and short-lived antimicrobial peptide polyene eliminates nasal Staphylococcus aureus” (Nature Microbiology, 2023)",
  "key": {"[1]": {"conditions": "cited from earlier work", "excerpt": "To our knowledge, the combination of peptide–polyene–tetramic acid moieties is unique to epifadin. […] In contrast to the ionophore act ..."}, "S. aureus USA300 JE2": {"test_system": "S. aureus USA300 JE2", "experiment": "Determination of the IC (miniaturized agar diffusion assay)", "assay_type": "cell-based, Staphylococcus aureus", "conditions": "agar diffusion on inoculated TSA, 24 h 37 °C dark; IC from inhibited agar volume", "procedure": "(§1) Instead, a miniaturized assay was developed. Molten TSA, kept below 42 °C, was inoculated with different test strains at an OD600 of 0.00125. Then, 17.5 ml was poured into Petri dishes, resulting in agar layers of ~3.16 mm thickness. After solidification, a cork borer was used to punch wells of 4-mm diameter into the agar. Thirty-five microlitres of purified epifadin in DMSO–PA (2.4 µg, 1.2 µg, 0.6 µg, 0.3 µg, 0.15 µg and 0.075 µg) was pipetted into the wells, and agar plates were incubated for 24 h at 37 °C in the dark. Diameters of the zones of inhibition were measured and the volume containing the inhibitory epifadin concentration was calculated, using the following formula for cylinder volume: Vc=πxr^2xhVc=cylindervolumeVi=πrz2xha−(πrw2xha)Vi=inhibitedvolumerz2=radius(diameter/2)zoneofinhibitionrw2=radius(diameter/2)ofwellha=heightofagar\n(§2) The volume of agar showing inhibition of the test strain was then correlated with the included amount of epifadin, and the epifadin concentration necessary to inhibit test strain growth in a 1 ml volume was calculated to yield IC values. If, for example, 2.4 µg of epifadin lead to an inhibited volume of 480 µl, to inhibit a volume of 1 ml, 5 µg epifadin is needed, which corresponds to an IC of 5 μg ml^−1. These calculations were conducted for the lowest amount of epifadin that led to a zone of inhibition to minimize the necessary epifadin amounts and the calculation error due to the gradient within the inhibition zone. As a control, the same assay was used to determine the IC for vancomycin, daptomycin and lugdunin under these conditions."}, "S. aureus USA300LAC": {"test_system": "S. aureus USA300LAC", "experiment": "Determination of the IC (miniaturized agar diffusion assay)", "assay_type": "cell-based, Staphylococcus aureus", "conditions": "agar diffusion on inoculated TSA, 35 µl in 4-mm wells, 24 h 37 °C dark; IC from inhibited agar volume at lowest active amount", "procedure": "as §1, §2"}, "S. aureus USA300 LAC": {"test_system": "S. aureus USA300 LAC", "experiment": "Stability analysis of epifadin (bioactivity by agar diffusion after incubation)", "assay_type": "physicochemical, Staphylococcus aureus", "conditions": "lugdunin 70 µg/ml in TSB, 37 °C, pH 7, light, r4-r10 = 0-6 h", "procedure": "Fig. 2 High instability of epifadin under in vivo-like conditions. S. epidermidis IVK83 culture supernatants containing epifadin were precipitated with HCl, freeze-dried and extracted with DMSO. This extract was diluted in TSB, incubated for the indicated time periods with constant shaking under the respective conditions and subsequently tested for activity towards S. aureus USA300 LAC. a, Stability of epifadin compared with other antibacterial agents under standard laboratory conditions (37 °C, pH 7, laboratory light exposure). b, In vivo-like conditions with laboratory light exposure at pH 7 (nasal condition) or pH 5.5 (skin condition) and reduced temperatures; incubation of epifadin under exclusion from light enabled further purification and activity determination. Conditions at pH 7, 37 °C and 0 h were used as reference for 100% stability. Data shown represent the mean ± s.d. of three independent experiments. Source data\nThe effect of different incubation conditions on the bioactivity of epifadin was analysed by agar diffusion assays on lawns of the sensitive indicator strain S. aureus USA300 LAC. To this end, liquid TSA was inoculated with an overnight culture of USA300 at an OD600 of 0.00125. After solidification of the agar, a cork borer was used to punch wells into the agar with 5 mm diameter. TSB media with 50 mM sodium citrate (pH 5 and 6) or 50 mM tris(hydroxymethyl)aminomethane (pH 8 and 9) were prepared. Epifadin-containing precipitate was dissolved in DMSO (12 mg ml^−1), and insoluble particles were removed by centrifugation. The supernatant was added to the prepared TSB media at a final concentration of 750 µg precipitate per millilitre (37.5 µg in 50 µl). Media were incubated for 6 h at 21 °C, 30 °C or 37 °C with or without laboratory light exposure and constant shaking at 500 rpm in a thermomixer (Eppendorf). As controls, 70 µg ml^−1 (3.5 µg in 50 µl) lugdunin, 24 µg ml^−1 (1.2 µg in 50 µl) gallidermin and 100 µg ml^−1 (5 µg in 50 µl) nisin were used. At different timepoints, 50 µl of each sample was pipetted into the wells of the agar plates. After incubation at 37 °C overnight, zones of inhibition were analysed with ImageJ software (version 1.8.0_112)."}},
  "data": [
    {"compound": "CC(=O)C1=C(O)[C@@H](CC(C)C)NC1=O", "note": "[mutanocyclin]", "values": [
      {"measurement": "antimicrobial activity", "setting": "[1]", "result": "not antimicrobial"}
    ]},
    {"compound": "CCCCCCC/C=C/C(=O)N1C(O)=C(C(C)=O)C(=O)[C@H]1CC(C)C", "note": "[reutericyclin A]", "values": [
      {"measurement": "antimicrobial activity", "setting": "[1]", "result": "antimicrobial"}
    ]},
    {"compound": "Lugdunin", "values": [
      {"measurement": "IC*", "setting": "S. aureus USA300 JE2", "result": 8.5, "unit": "µg/mL"},
      {"measurement": "IC*", "setting": "S. aureus USA300LAC", "result": 7.3, "unit": "µg/mL"},
      {"measurement": "stability (remaining antimicrobial activity, 0 h = 100%)", "setting": "S. aureus USA300 LAC; experiment 1 of 3, after 1 h incubation", "result": 83.34, "unit": "%"},
      {"measurement": "stability (remaining antimicrobial activity, 0 h = 100%)", "setting": "S. aureus USA300 LAC; experiment 1 of 3, after 2 h incubation", "result": 75.95, "unit": "%"},
      {"measurement": "stability (remaining antimicrobial activity, 0 h = 100%)", "setting": "S. aureus USA300 LAC; experiment 1 of 3, after 3 h incubation", "result": 68.18, "unit": "%"},
      {"measurement": "stability (remaining antimicrobial activity, 0 h = 100%)", "setting": "S. aureus USA300 LAC; experiment 1 of 3, after 4 h incubation", "result": 72.38, "unit": "%"},
      {"measurement": "stability (remaining antimicrobial activity, 0 h = 100%)", "setting": "S. aureus USA300 LAC; experiment 1 of 3, after 5 h incubation", "result": 65.52, "unit": "%"},
      {"measurement": "stability (remaining antimicrobial activity, 0 h = 100%)", "setting": "S. aureus USA300 LAC; experiment 1 of 3, after 6 h incubation", "result": 61.66, "unit": "%"},
      {"measurement": "stability (remaining antimicrobial activity, 0 h = 100%)", "setting": "S. aureus USA300 LAC; experiment 2 of 3, after 1 h incubation", "result": 81.19, "unit": "%"},
      {"measurement": "stability (remaining antimicrobial activity, 0 h = 100%)", "setting": "S. aureus USA300 LAC; experiment 2 of 3, after 2 h incubation", "result": 74.91, "unit": "%"},
      {"measurement": "stability (remaining antimicrobial activity, 0 h = 100%)", "setting": "S. aureus USA300 LAC; experiment 2 of 3, after 3 h incubation", "result": 69.51, "unit": "%"},
      {"measurement": "stability (remaining antimicrobial activity, 0 h = 100%)", "setting": "S. aureus USA300 LAC; experiment 2 of 3, after 4 h incubation", "result": 68.58, "unit": "%"},
      {"measurement": "stability (remaining antimicrobial activity, 0 h = 100%)", "setting": "S. aureus USA300 LAC; experiment 2 of 3, after 5 h incubation", "result": 65.27, "unit": "%"},
      {"measurement": "stability (remaining antimicrobial activity, 0 h = 100%)", "setting": "S. aureus USA300 LAC; experiment 2 of 3, after 6 h incubation", "result": 69.75, "unit": "%"},
      {"measurement": "stability (remaining antimicrobial activity, 0 h = 100%)", "setting": "S. aureus USA300 LAC; experiment 3 of 3, after 1 h incubation", "result": 81.54, "unit": "%"},
      {"measurement": "stability (remaining antimicrobial activity, 0 h = 100%)", "setting": "S. aureus USA300 LAC; experiment 3 of 3, after 2 h incubation", "result": 76.22, "unit": "%"},
      {"measurement": "stability (remaining antimicrobial activity, 0 h = 100%)", "setting": "S. aureus USA300 LAC; experiment 3 of 3, after 3 h incubation", "result": 72.30, "unit": "%"},
      {"measurement": "stability (remaining antimicrobial activity, 0 h = 100%)", "setting": "S. aureus USA300 LAC; experiment 3 of 3, after 4 h incubation", "result": 70.84, "unit": "%"},
      {"measurement": "stability (remaining antimicrobial activity, 0 h = 100%)", "setting": "S. aureus USA300 LAC; experiment 3 of 3, after 5 h incubation", "result": 67.83, "unit": "%"},
      {"measurement": "stability (remaining antimicrobial activity, 0 h = 100%)", "setting": "S. aureus USA300 LAC; experiment 3 of 3, after 6 h incubation", "result": 62.11, "unit": "%"}
    ]}
  ]
}
